In patent US20240368122A1, “JAK2 INHIBITORS AND METHODS OF USE THEREOF” (RELAY THERAPEUTICS, INC., priority 2021, published 2024):
Where two headings read alike, the source gives them in different places.

What was measured:
[1] = test system: TF1 JAK2 V617F STAT3 reporter; experiment: Cellular TF1 STAT3 assay (luciferase reporter), JAK2 V617F; assay type: cell-based; details: read-out: Cell PD-TF1 JAK2 V617F STAT3 (IC50)
Experimental: (§1) Selected compounds of the present disclosure were tested in a Cellular TF1 STAT3 or STAT5 assay, to measure the degree of JAK2-mediated STAT3 or STAT5 phosphorylation, respectively. TF1 cells (immortalized erythroleukemia line) expressing either wildtype or V617F mutant JAK2 with a luciferase reporter were used.
(§2) Cell culture: Cells were put into antibiotic selection (1 ug/ml puro+500 ug/ml Geneticin) when first thawed then maintained in growth media without antibiotics. Cells were maintained in exponential growth phase, between 0.02-1 E6 cells/ml.
(§3) Compound preparation: Compounds were screened as 10-point dose response curves 1:3 dilutions. DMSO is used as the vehicle control. All wells were normalized to the same final DMSO concentration. Compounds were pre-spotted onto 384 well plates using an Echo acoustic dispenser, 50 nL of 1000× (10 mM top concentration) DMSO stock/well. Each compound is run in triplicate plates.
(§4) Cell plating: Cells were counted using Vi-Cell XR, then cells were spun down and resuspended in growth media to 200,000 cells/ml. Cells were added to plates containing compound. 10,000 cells/well in 50 ul volume using a Biomek liquid handler. Plates were briefly mixed on a shaker for 1 minute at 2500 rpm then placed in a 37° C., 5% CO2 incubator overnight for 18-20 hrs.
(§5) Measuring luciferase activity: ONE-glo reagent was brought to room temperature, and 25 μL of ONE-glo assay reagent was added to each well using Biomek liquid handler. The plates were incubated for 10 minutes at room temperature, then luminescence was measured on an Envision plate reader.

[2] = molecular target: T1, JAK2 JH2 WT (V536-D812) [W659A, W777A, F794H solubilizing mutations] (Homo sapiens, UniProt O60674, F794H/W659A/W777A); experiment: Surface Plasmon Resonance (SPR) binding assay, JAK2 JH2 domain
T1 construct: **JAK2 JH2 WT (V536-D812) [W659A, W777A, F794H solubilizing mutations]; C-thrombin-avi-His6; thrombin cleavage site (C); His6 (C); purchased Biortus
T1 sequence (O60674 536-812 W659A/W777A/F794H): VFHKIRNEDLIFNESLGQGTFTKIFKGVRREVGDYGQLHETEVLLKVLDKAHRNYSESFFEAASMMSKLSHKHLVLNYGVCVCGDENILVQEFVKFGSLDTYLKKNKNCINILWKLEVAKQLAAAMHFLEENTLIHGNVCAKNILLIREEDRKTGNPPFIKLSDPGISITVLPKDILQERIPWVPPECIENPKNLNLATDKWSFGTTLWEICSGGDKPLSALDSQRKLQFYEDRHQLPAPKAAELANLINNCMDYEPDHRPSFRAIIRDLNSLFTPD
Experimental: Selected compounds of the present disclosure were tested in a Surface Plasmon Resonance (SPR) Assay to measure their binding kinetics and affinity for proteins of interest.
Prepare buffer: 50 mM HEPES pH 7.5, 150 mM NaCl, 0.05% (v/v) Tween, and 10% (v/v) glycerol were combined and pH was adjusted to 7.5, then filtered. 5 mM DTT, was added, and buffer without DMSO was reserved for compound resuspension. 2% (v/v) DMSO was added for assay buffer, and separately 1% DMSO was used to make buffer for resuspending compounds.
Prepare compounds: Using a Bravo liquid handler, 99 μL of 1% (v/v) DMSO assay buffer was added to 1 μL compounds in DMSO.
Run 8K Method: Biotin CAPture (CAP) chip surface was regenerated prior to run by: Inserting CAP chip into Biacore 8K, prime machine with assay buffer with 2% (v/v) DMSO; Setting instrument temperature to 20° C.; Conditioning surface with NaOH/GdnHCl reagents from CAP chip kit (60 seconds, 10 μL/min); and Capturing oligo-Streptavidin (SA) reagent from CAP kit (600 seconds, 1 μL/min), expected capture ˜2500 RU. JAK2 JH1 or JH2 protein was immobilized by preparing a sample of 0.5 uM JH1 or 0.4 uM JH2 protein diluted in assay buffer without DMSO and supplemented with 10 uM of a selected compound of the invention as a stabilizer (370 seconds, 5 uL/min), expected capture ˜1000 RU. Remaining biotin sites on SA were blocked with 1 uM biotin (30 seconds, 20 uL/min), then equilibrated for 1800 seconds at 100 uL/min. Compounds being assayed were run in single cycle kinetics: 4 doses with a top concentration of 5 uM (JH1) or 500 nM (JH2), dilution factor of 3, at 20° C., for a contact time of 60 seconds, and a dissociation time of 300 seconds (JH1) or 1200 seconds (JH2), at a flow rate of 30 uL/min. The surface was completely regenerated after each compound is run, and JH1 or JH2 protein was immobilized fresh prior to each new compound. Data were fitted kinetically with 1:1 binding model using Biacore Insight Evaluation Software.

[3] = test system: TF1 JAK2 V617F STAT5 reporter; experiment: Cellular TF1 STAT5 assay (luciferase reporter), JAK2 V617F; assay type: cell-based; details: read-out: Cell PD TF1 V617F STAT5 (IC50)
Experimental: as §1, §2, §3, §4, §5

[4] = Homo sapiens, TF-1, TF1 cells, JAK2 V617F

IC50 [1, 4] | IC50 [3, 4] | Kd ([2]; SPR, JAK2 JH2 domain) | SMILES | further results
5000 to 100000 nM | 500 to 5000 nM |  | CNC(=O)c1nnc(NC(=O)OC2CC2)cc1Nc1cccc(-c2cnn(C3CC(Oc4cccc(C#N)n4)C3)c2)c1OC (mixture of isomers) [Compound 345] | Kd [2]: 0.01 to 10 nM
 |  | 0.01 to 10 nM | CNC(=O)c1nnc(NC(=O)C2CC2)cc1Nc1cccc(-c2cnn(C3CN(C(C)c4ccccn4)C3)c2)c1OC (racemic) [Compound 127] | IC50 ([1]; TF1 JAK2 V617F): 500 to 5000 nM; IC50 ([3]; TF1 JAK2 V617F): 500 to 5000 nM
50 to 500 nM | 50 to 500 nM |  | CNC(=O)c1nnc(NC(=O)C2CC2)cc1Nc1cccc(-c2cn([C@@H]3CN(Cc4cccc(C#N)n4)[C@H]3C)nn2)c1OC (racemic) [Compound 214] | Kd [2]: 0.01 to 10 nM
500 to 5000 nM | 500 to 5000 nM |  | CNC(=O)c1nnc(NC(=O)C2CC2)cc1Nc1cccc(-c2cnn(C3CN(C(C)c4cccc(C#N)n4)C3)c2)c1OC (racemic) [Compound 227] | Kd [2]: 0.01 to 10 nM
500 to 5000 nM | 500 to 5000 nM |  | CNC(=O)c1nnc(NC(=O)C2CC2)cc1Nc1cccc(-c2cn([C@@H]3CN(Cc4cccc(C)n4)[C@H]3C(OC)OC)nn2)c1OC (racemic) [Compound 247] | Kd [2]: 0.01 to 10 nM
500 to 5000 nM | 500 to 5000 nM |  | CNC(=O)c1nnc(NC(=O)C2CC2)cc1Nc1ccc(C)c(-c2cn([C@@H]3CN(Cc4cccc(C)n4)[C@H]3C)nn2)c1OC (racemic) [Compound 270] | Kd [2]: 0.01 to 10 nM
500 to 5000 nM | 5000 to 100000 nM |  | CNC(=O)c1nnc(NC(=O)C2CC2)cc1Nc1cccc(-c2cnn(C3CN(C(C#N)c4ccccn4)C3)c2)c1OC (racemic) [Compound 315] | Kd [2]: 0.01 to 10 nM
 |  | 0.01 to 10 nM | CNC(=O)c1nnc(NC(=O)C2CC2)cc1Nc1cccc(-c2ccc(C(=O)N(C)[C@H](C)c3nc(C)no3)nc2)c1OC (single isomer, unassigned) [Compound 65] | IC50 ([1]; TF1 JAK2 V617F): 500 to 5000 nM; IC50 ([3]; TF1 JAK2 V617F): 500 to 5000 nM
 |  | 10 to 50 nM | CNC(=O)c1nnc(NC(=O)C2CC2)cc1Nc1cccc(-c2ccc(C(=O)N(C)[C@H](C)c3cnn(C)c3)nc2)c1OC (single isomer, unassigned) [Compound 115] | IC50 ([1]; TF1 JAK2 V617F): 5000 to 100000 nM; IC50 ([3]; TF1 JAK2 V617F): 5000 to 100000 nM
 |  | 0.01 to 10 nM | CNC(=O)c1nnc(NC(=O)C2CC2)cc1Nc1cccc(-c2ccc(C(=O)N(C)[C@@H](C)c3cnn(C)c3)nc2)c1OC (single isomer, unassigned) [Compound 116] | IC50 ([1]; TF1 JAK2 V617F): 50 to 500 nM; IC50 ([3]; TF1 JAK2 V617F): 500 to 5000 nM
 |  | 0.01 to 10 nM | CNC(=O)c1nnc(NC(=O)C2CC2)cc1Nc1ccc(C)c(-c2cnc(C(=O)N(C)C[C@H]3CCN(C)C3=O)c(F)c2)c1OC (single isomer, unassigned) [Compound 117] | IC50 ([1]; TF1 JAK2 V617F): 5000 to 100000 nM; IC50 ([3]; TF1 JAK2 V617F): 5000 to 100000 nM
 |  | 10 to 50 nM | CNC(=O)c1nnc(NC(=O)C2CC2)cc1Nc1cccc(-c2ccc(C(=O)N(C)C[C@@H]3Cc4ccccc4CO3)nc2)c1OC (single isomer, unassigned) [Compound 138] | IC50 ([1]; TF1 JAK2 V617F): 500 to 5000 nM; IC50 ([3]; TF1 JAK2 V617F): 5000 to 100000 nM
 |  | 10 to 50 nM | CNC(=O)c1nnc(NC(=O)C2CC2)cc1Nc1cccc(-c2ccc(C(=O)N(C)C[C@H]3Cc4ccccc4CO3)nc2)c1OC (single isomer, unassigned) [Compound 139] | IC50 ([1]; TF1 JAK2 V617F): 500 to 5000 nM; IC50 ([3]; TF1 JAK2 V617F): 5000 to 100000 nM
 |  | 10 to 50 nM | CNC(=O)c1nnc(NC(=O)C2CC2)cc1Nc1cccc(-c2ccc(C(=O)N(C)C[C@@H]3CCCO3)nc2)c1OC (single isomer, unassigned) [Compound 140] | IC50 ([1]; TF1 JAK2 V617F): 5000 to 100000 nM; IC50 ([3]; TF1 JAK2 V617F): 5000 to 100000 nM
 | 50 to 500 nM |  | CNC(=O)c1nnc(NC(=O)C2CC2)cc1Nc1cccc(-c2cnn(C3CN(Cc4cccc([S@+](C)[O-])n4)C3)c2)c1OC (single isomer, unassigned) [Compound 402] | 
 | 50 to 500 nM |  | CNC(=O)c1nnc(NC(=O)C2CC2)cc1Nc1cccc(-c2cnn(C3CN(Cc4cccc([S@@+](C)[O-])n4)C3)c2)c1OC (single isomer, unassigned) [Compound 403] | 
 | 50 to 500 nM |  | CNC(=O)c1nnc(NC(=O)C2CC2)cc1Nc1cccc(-c2ccc(C(=O)N(C)Cc3cc([S@@+](C)[O-])ccn3)nc2)c1OC (single isomer, unassigned) [Compound 405] | 

IC50 [1, 4] | IC50 [3, 4] | Kd ([2]; SPR, JAK2 JH2 domain) | SMILES | further results
 | 500 to 5000 nM |  | CNC(=O)c1nnc(NC(=O)C2CC2)cc1Nc1cccc(-c2ccc(C(=O)N(C)Cc3cc([S@+](C)[O-])ccn3)nc2)c1OC (single isomer, unassigned) [Compound 407] | 
 |  | 0.01 to 10 nM | CNC(=O)c1nnc(NC(=O)C2CC2)cc1Nc1cccc(-c2ccc(C(=O)N(C)C(C)c3cnn(C)c3)nc2)c1OC (centres unmarked) [Compound 46] | 
 |  | 0.01 to 10 nM | [2H]C([2H])([2H])N(Cc1cc(C#N)ccn1)C(=O)c1ncc(-c2c(C)ccc(Nc3cc(NC(=O)C4CC4)nnc3C(=O)NC)c2OC)cn1 [Compound 87] | 
500 to 5000 nM | 500 to 5000 nM |  | CNC(=O)c1nnc(NC(=O)C2CC2)cc1Nc1cccc(-c2cnn(C3CN(Cc4nn(C)cc4C)C3)c2)c1OC [Compound 215] | 
500 to 5000 nM | 500 to 5000 nM |  | CNC(=O)c1nnc(NC(=O)C2CC2)cc1Nc1cccc(-c2ccc(C(=O)N(C)Cc3cc(C#N)ccn3)c(C(F)F)c2)c1OC [Compound 233] | 
 |  |  | CNC(=O)c1nnc(NC(=O)C2CC2)cc1Nc1nccc(-c2ccc(C(=O)N(C)Cc3ncc(COC)s3)nc2)c1OC [Compound 375] | Kd [2]: 0.01 to 10 nM
5000 to 100000 nM | 500 to 5000 nM |  | CNC(=O)c1nnc(NC(=O)C2CC2)cc1Nc1cccc(-c2ccc(C3CN(Cc4ncc(OC)cc4Cl)C3)nc2)c1OC [Compound 386] | 
5000 to 100000 nM | 500 to 5000 nM |  | CNC(=O)c1nnc(NC(=O)C2CC2)cc1Nc1cccc(-c2ccc(C3CN(Cc4ccc(C(F)(F)F)cn4)C3)nc2)c1OC [Compound 387] | 
 |  |  | CNC(=O)c1nnc(NC(=O)C2CC2)cc1Nc1cccc(-c2ccc(C3CN(Cc4ccc(OC5CC5)cn4)C3)nc2)c1OC [Compound 390] | Kd [2]: 50 to 500 nM
5000 to 100000 nM | 5000 to 100000 nM |  | COc1c(Nc2cc(NC(=O)C3CC3)nn3cc(C(N)=O)nc23)ccc(C)c1-c1cnn(C2CN(Cc3ccccn3)C2)c1 [Compound 392] | 
500 to 5000 nM | 5000 to 100000 nM |  | CNC(=O)c1nnc(NC(=O)C2CC2)cc1Nc1cccc(-c2cc(N3CC(Oc4ccccn4)C3)n(C)n2)c1OC [Compound 393] | 
5000 to 100000 nM | 5000 to 100000 nM |  | COc1c(Nc2cc(NC(=O)C3CC3)nn3cc(C#N)nc23)ccc(C)c1-c1cnn(C2CN(Cc3ccccn3)C2)c1 [Compound 395] | 
 | 50 to 500 nM |  | CNC(=O)c1nnc(NC(=O)C2CC2)cc1Nc1cc(F)c(C)c(-c2ccc(C(=O)N(C)Cc3cc(S(C)(=O)=O)ccn3)nc2)c1OC [Compound 400] | 
 | 50 to 500 nM |  | CNC(=O)c1nnc(NC(=O)C2CC2)cc1Nc1ccc(Cl)c(-c2ccc(C(=O)N(C)Cc3cc(S(C)(=O)=O)ccn3)nc2)c1OC [Compound 401] | 
 | 5000 to 100000 nM |  | CNC(=O)c1nnc(NC(=O)C2CC2)cc1Nc1cccc(-c2cc(N3CC(Cc4ccccn4)C3)n(C)n2)c1OC [Compound 404] | 
 | 5000 to 100000 nM |  | COc1c(Nc2cc(NC(=O)C3CC3)nnc2-c2ncc[nH]2)cccc1-c1cnn(C2CN(Cc3ccccn3)C2)c1 [Compound 406] | 
